These results are taken from US20110312941A1, “1,4-DISUBSTITUTED PIPERIDINES AS VASOPRESSIN RECEPTOR VIA ANTAGONISTS” (VANTIA LIMITED, priority 2009, published 2011).

Test [1] relates to dysmenorrhoea. As to conditions: clinical study, compared to patients taking placebo; cited from earlier work.
Test [2] has as its target T1, cloned human V1a receptor (Homo sapiens, UniProt P37288).
T1 construct: host or cells: human brain astrocytoma 1321N1 cells
Description: in vitro functional calcium mobilisation assay (FLIPR), antagonist activity, 1321N1 cells, 250 pM AVP. The class given is cell-based. The conditions noted are these: functional pKi derived from pIC50 (Equation 1), FLIPR Ca2+ mobilisation, 1321N1 cells expressing cloned human V1a receptor, read-out: Mean fpKi (Human V1a) (converted). Put shortly: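 Antagonism measured as inhibition of calcium mobilisation induced by 250 pM AVP, with increasing compound concentrations, in 1321N1 astrocytoma cells stably expressing the receptor. pIC50 from 4-parameter logistic fit, converted to functional pKi using agonist concentration and agonist EC50.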

T1 sequence (P37288 whole entry): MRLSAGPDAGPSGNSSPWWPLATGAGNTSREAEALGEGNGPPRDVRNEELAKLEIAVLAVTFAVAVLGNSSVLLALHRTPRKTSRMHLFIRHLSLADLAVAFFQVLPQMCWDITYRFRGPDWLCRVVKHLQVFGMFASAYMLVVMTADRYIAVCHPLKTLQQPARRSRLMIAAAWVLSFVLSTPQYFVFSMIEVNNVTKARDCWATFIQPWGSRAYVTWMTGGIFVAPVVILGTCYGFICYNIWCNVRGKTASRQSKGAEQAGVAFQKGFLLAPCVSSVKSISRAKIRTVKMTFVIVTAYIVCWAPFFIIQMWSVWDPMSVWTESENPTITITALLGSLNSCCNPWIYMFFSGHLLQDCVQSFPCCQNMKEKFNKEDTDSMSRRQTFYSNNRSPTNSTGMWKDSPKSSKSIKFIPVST

For the compound `COc1ccc(S(=O)(=O)N2c3ccc(Cl)cc3[C@](O)(c3ccccc3Cl)[C@@H]2C(=O)N2CCC[C@H]2C(N)=O)cc1OC` [SR49059], in test [1], the “amount of additional pain-killer taken” value is recorded as “dose-related decrease in the amount of additional pain-killer taken” and the pain result was “dose-related decrease in pain”.
As for `O=C(C1CCN(c2ccccn2)CC1)N1CCc2nc(Cc3ccccc3)[nH]c2-c2cc(Cl)ccc21` [Example 56], the Ki in test [2] was 79.4 nM.
On to `Cc1nc2c([nH]1)-c1cc(Cl)ccc1N(C(=O)C1CCN(c3ccc(Cl)cc3)CC1)CC2` [Example 88], for which the Ki in test [2] was 6.17 nM.
In the case of `N#Cc1cccc(N2CCC(C(=O)N3Cc4cccn4Cc4ccccc43)CC2)c1` [Example 170], the Ki in test [2] is 25.7 nM.
On to `Cc1nc2c([nH]1)-c1cc(Cl)ccc1N(C(=O)C1CCN(c3ccc(C(C)C)cc3)CC1)CC2` [Example 97], for which, in test [2], the Ki was 22.4 nM.
In the case of `COc1cccnc1N1CCC(C(=O)N2Cc3cnn(C)c3Nc3cc(C)ccc32)CC1` [Example 113], the Ki in test [2] is 30.2 nM.
Still for that read-out and setting: the result for `Cc1nc2c([nH]1)-c1cc(Cl)ccc1N(C(=O)C1CCN(c3ncccn3)CC1)CC2` [Example 7] reads 49 nM; that for `Nc1ccc(N2CCC(C(=O)N3Cc4cccn4Cc4ccccc43)CC2)cc1` [Example 176], 2.51 nM.
Same read-out and setting: the result for `COc1ccc(N2CCC(C(=O)N3CCc4nc(N5CCOCC5)[nH]c4-c4cc(C)ccc43)CC2)nc1` [Example 34] reads 2.69 nM.
Still for that read-out and setting: the figure for `O=C(C1CCN(c2ccccc2)CC1)N1CCc2nc(C3CC3)[nH]c2-c2cc(Cl)ccc21` [Example 75] is 11 nM.
For the compound `NCc1ccc(N2CCC(C(=O)N3Cc4cccn4Cc4ccccc43)CC2)cc1` [Example 178], the Ki in test [2] was 97.7 nM.
Same read-out and setting: the figure for `Cc1ccc(N2CCC(C(=O)N3Cc4cnn(C)c4Nc4cc(C)ccc43)CC2)cc1` [Example 129] is 0.324 nM; for `Cc1ccc2c(c1)Nc1c(cnn1C)CN2C(=O)C1CCN(c2ccccc2F)CC1` [Example 127] it is 2 nM; for `Cc1ccc2c(c1)Nc1c(cnn1C)CN2C(=O)C1CCN(c2ccc(C)nc2)CC1` [Example 141] it is 5.13 nM.
The same measure, in the same setting: the figure for `CCc1ccc(N2CCC(C(=O)N3Cc4cnn(C)c4Nc4cc(C)ccc43)CC2)cc1` [Example 132] is 0.741 nM; for `Cc1ccc(N2CCC(C(=O)N3Cc4cnn(C)c4Nc4cc(Cl)ccc43)CC2)cc1` [Example 136] it is 0.617 nM.
For the compound `COc1ccc(N2CCC(C(=O)N3Cc4cnn(C)c4Nc4cc(Cl)ccc43)CC2)cc1` [Example 138], the Ki in test [2] is 2.63 nM.
As to `Cc1nc2c([nH]1)-c1cc(Cl)ccc1N(C(=O)C1CCN(c3ccccc3F)CC1)CC2` [Example 83], the Ki in test [2] is 26.3 nM.
Consider `Cc1nc2c([nH]1)-c1ccccc1N(C(=O)C1CCN(c3ncccn3)CC1)CC2` [Example 6], for which the Ki in test [2] is 912 nM.
Take `CCn1ncc2c1Nc1cc(Cl)ccc1N(C(=O)C1CCN(c3cccc(C)n3)CC1)C2` [Example 126]: the Ki in test [2] is 1.2 nM.
Still for that read-out and setting: the figure for `Cc1ccc(N2CCC(C(=O)N3Cc4cnn(C)c4Nc4cc(Cl)ccc43)CC2)cn1` [Example 142] is 2.88 nM.
Turning to `Cc1ccc2c(c1)-c1[nH]c(N3CCOCC3)nc1CCN2C(=O)C1CCN(c2cccnc2C)CC1` [Example 71], the Ki in test [2] is 16.6 nM.
With `COc1cccc(N2CCC(C(=O)N3Cc4cccn4Cc4ccccc43)CC2)c1` [Example 163], the Ki in test [2] is 5.62 nM.
On the same count and under the same terms, the figure for `Cc1ccc(N2CCC(C(=O)N3CCc4nc(C5CCOCC5)[nH]c4-c4cc(C)ccc43)CC2)nc1` [Example 39] is 2 nM; for `Cc1ccc(N2CCC(C(=O)N3CCc4nc(N5CCCC5)[nH]c4-c4cc(C)ccc43)CC2)nc1` [Example 43] it is 7.59 nM; for `Cc1cccnc1N1CCC(C(=O)N2CCc3nc(N4CCOCC4)[nH]c3-c3ccccc32)CC1` [Example 10] it is 5.01 nM.
With `Cc1cccc(N2CCC(C(=O)N3CCc4nc(C)[nH]c4-c4cc(Cl)ccc43)CC2)c1` [Example 90], in test [2], the Ki was 9.55 nM.
Still for that read-out and setting: the figure for `CCCc1nc2c([nH]1)-c1cc(C)ccc1N(C(=O)C1CCN(c3cccc(C)n3)CC1)CC2` [Example 62] is 7.41 nM; for `CCCc1ccc(N2CCC(C(=O)N3CCc4nc(C)[nH]c4-c4cc(Cl)ccc43)CC2)cc1` [Example 96] it is 13.5 nM.
As to `Cc1ccc(N2CCC(C(=O)N3Cc4cnn(Cc5ccccc5)c4Nc4cc(C)ccc43)CC2)nc1` [Example 114], the Ki in test [2] is 20 nM.
Take `Cc1cccc(N2CCC(C(=O)N3CCc4nc(N5CCOCC5)[nH]c4-c4cc(Cl)ccc43)CC2)n1` [Example 67]: the Ki in test [2] was 1.35 nM.
Regarding `O=C(C1CCN(c2ccccn2)CC1)N1CCc2nc(N3CCOCC3)[nH]c2-c2ccccc21` [Example 9], the Ki in test [2] was 18.2 nM.
The same measure, in the same setting: the result for `Cc1ccc2c(c1)Nc1c(cnn1C)CN2C(=O)C1CCN(c2cccc(C)n2)CC1` [Example 124] reads 9.55 nM; that for `COc1ccc(N2CCC(C(=O)N3Cc4cccn4Cc4ccccc43)CC2)cc1` [Example 164], 14.1 nM; that for `CCc1nc2c([nH]1)-c1cc(Cl)ccc1N(C(=O)C1CCN(c3ccccn3)CC1)CC2` [Example 46], 13.5 nM.
Same read-out and setting: the figure for `N#Cc1ccc(N2CCC(C(=O)N3Cc4cccn4Cc4ccccc43)CC2)cc1` [Example 171] is 214 nM; for `Cn1ncc2c1Nc1ccccc1N(C(=O)C1CCN(c3ccccn3)CC1)C2` [Example 106] it is 12.6 nM.
Regarding `Cc1ccc2c(c1)-c1[nH]c(N3CCOCC3)nc1CCN2C(=O)C1CCN(c2cnccc2C)CC1` [Example 69], the Ki in test [2] was 13.8 nM.
Consider `Cc1ccc2c(c1)-c1[nH]c(C3CCOCC3)nc1CCN2C(=O)C1CCN(c2ncccc2C)CC1` [Example 37], for which the Ki in test [2] was 4.37 nM.
As to `O=C(C1CCN(c2ccc(Cl)cc2)CC1)N1Cc2cccn2Cc2ccccc21` [Example 158], the Ki in test [2] is 4.79 nM.
For `O=C(C1CCN(c2cccnc2)CC1)N1Cc2cccn2Cc2ccccc21` [Example 146], in test [2], the Ki is 31.6 nM.
With `CCCCc1nc2c([nH]1)CCN(C(=O)C1CCN(c3ccc(C)cn3)CC1)c1ccc(C)cc1-2` [Example 27], in test [2], the Ki was 4.47 nM.
`Cc1cccc(N2CCC(C(=O)N3Cc4cnn(C)c4Nc4cc(Cl)ccc43)CC2)n1` [Example 125]: the Ki in test [2] is 5.89 nM.
In the case of `CCc1nc2c([nH]1)-c1cc(C)ccc1N(C(=O)C1CCN(c3ncccc3C)CC1)CC2` [Example 17], the Ki in test [2] was 5.01 nM.
As to `CCCCc1nc2c([nH]1)CCN(C(=O)C1CCN(c3ccccn3)CC1)c1ccc(C)cc1-2` [Example 26], in test [2], the Ki is 18.2 nM.
